Measured values as given in patent publication US20220378923A1, “BET DEGRADER” (KYOWA KIRIN CO., LTD., priority 2019, published 2022).

test system: SU-DHL-4 cells; test: Inhibitory effect on cell viability in SU-DHL-4 cell line (Test Example 1); format: cell-based, human; details: Homo sapiens; SU-DHL-4 cells, 72 hours, Cell Counting Kit-8; concentration showing 90% inhibition of cell viability; read-out: SU-DHL-4 Cell Viability Inhibition Rate IC90
Description: SU-DHL-4 cells (Code No. ACC 495, Deutsche Sammlung von Mikroorganismen and Zellkulturen GmbH; DSMZ) were cultured at 37° C. using a carbon dioxide incubator (95% air, 5% CO2) in RPMI1640 medium (Code No. 11875-093, Thermo Fisher Scientific) in which inactivated fetal bovine serum (FBS: Code No. 10099-148, Thermo Fisher Scientific) in an amount to give a final concentration of 10 vol % and penicillin/streptomycin solution (PS: […] The cells were passaged twice a week at a volume of 20-40 mL so as to maintain a cell concentration of 1×10^6 cells/mL or less. […] After seeding, the cells were precultured at 37° C. in a carbon dioxide gas incubator for 18 to 25 hours. […] At this time, the final concentration of DMSO was adjusted to be 0.1 vol %. After adding the test compound, the cells were cultured at 37° C. in a carbon dioxide gas incubator for 72 hours. Next, 0.020 mL of Cell Counting Kit-8 (Code No. CK04, DOJINDO) solution diluted 2-fold or 4-fold with phosphate buffered saline (PBS) was added to each well. Color reaction was carried out in a carbon dioxide gas incubator at 37° C. for 2 to 3 hours, and the absorbance at a wavelength of 450 nm was measured using SpectraMax 340PC (Molecular Devices). […] Absorbance of a well containing test compound • B: Absorbance of a well without addition of cells • C: Absorbance of a well without addition of test compound

Row | SMILES | IC90
1 | CCC(=O)N1c2ccccc2[C@H](Nc2ccc(NC(=O)CCCC(=O)NC3CC4(C3)CN(Cc3cc(O)cc(-c5c(C)noc5C)c3)C4)cc2)C[C@@H]1C [Compound 16g, N^1-(2-(3-(3,5-Dimethylisoxazol-4-yl)-5-hydroxybenzyl)-2-azaspiro[3.3]heptan-6-yl)-N5-(4-(((2S,4R)-2-methyl-1-propionyl-1,2,3,4-tetrahydroquinolin-4-yl)amino)phenyl)glutaramide] | 14.9 nM
2 | CCC(=O)N1c2ccccc2[C@H](Nc2ccc(NC(=O)CNCC(=O)Nc3ccc(N[C@@H]4C[C@H](C)N(C(=O)CC)c5ccccc54)nc3)cc2)C[C@@H]1C (relative stereo) [Compound 17g, N-(4-(((2S,4R)-2-Methyl-1-propionyl-1,2,3,4-tetrahydroquinolin-4-yl)amino)phenyl)-2-((2-((6-(((2S*,4R*)-2-methyl-1-propionyl-1,2,3,4-tetrahydroquinolin-4-yl)amino)pyridin-3-yl)amino)-2-oxoethyl)amino)acetamide] | 32.7 nM

same assay, conditions: SU-DHL-4 cells, 72 hours, Cell Counting Kit-8; concentration showing 90% inhibition of cell viability; read-out: SU-DHL-4 Cell Viability Inhibition Rate IC90

Row | SMILES | IC90
3 | CCC(=O)N1c2ccccc2[C@H](Nc2ccc(C(=O)N[C@H]3C[C@H](NC(=O)c4ccc(N[C@@H]5C[C@H](C)N(C(=O)CC)c6ccccc65)cc4)C3)cc2)C[C@@H]1C [Compound 1j, N,N′-[(1r,3r)-Cyclobutane-1,3-diyl]bis(4-{[(2S,4R)-2-methyl-1-propionyl-1,2,3,4-tetrahydroquinolin-4-yl]amino}benzamide)] | 33.1 nM
4 | CCC(=O)N1c2ccccc2[C@H](NCCCCC(=O)NCc2nnc(-c3ccc(N[C@@H]4C[C@H](C)N(C(=O)CC)c5ccccc54)cc3)o2)C[C@@H]1C (relative stereo) [Compound 12j, 5-(((2S*,4R*)-2-Methyl-1-propionyl-1,2,3,4-tetrahydroquinolin-4-yl)amino)-N-((5-(4-(((2S,4R)-2-methyl-1-propionyl-1,2,3,4-tetrahydroquinolin-4-yl)amino)phenyl)-1,3,4-oxadiazol-2-yl)methyl)pentane amide] | 17.4 nM
5 | CCC(=O)N1c2ccccc2[C@H](Nc2ccc(C(=O)NCCCNC(=O)c3ccc(Cn4c(CC)cc5c4CCCC5=O)cc3)cc2)C[C@@H]1C (relative stereo) [Compound 1e, 4-[(2-Ethyl-4-oxo-4,5,6,7-tetrahydro-1H-indol-1-yl)methyl]-N-[3-(4-{[(2S*,4R*)-2-methyl-1-propionyl-1,2,3,4-tetrahydroquinolin-4-yl]amino}benzamide)propyl]benzamide] | 39.8 nM
6 | CCC(=O)N1c2ccccc2[C@H](Nc2ccc(Cc3cnc4n3CCN(C(=O)C3CCC(N[C@@H]5C[C@H](C)N(C(=O)CC)c6ccccc65)CC3)C4)cc2)C[C@@H]1C (relative stereo) [Compound 7l, 1-((2S*,4R*)-2-Methyl-4-(((1r,4R)-4-(3-(4-(((2S,4R)-2-methyl-1-propionyl-1,2,3,4-tetrahydroquinolin-4-yl)amino)benzyl)-5,6,7,8-tetrahydroimidazo[1,2-a]pyrazine-7-carbonyl)cyclohexyl)amino)-3,4-dihydroquinolin-1(2H)-yl)propan-1-one] | 0.28 nM
7 | CCC(=O)N1c2ccccc2[C@H](Nc2ccc(NC(=O)CNC(=S)OC3CCC(N[C@@H]4C[C@H](C)N(C(=O)CC)c5ccccc54)CC3)cc2)C[C@@H]1C (relative stereo) [Compound 7d, 0-((1R,4R)-4-(((2S*,4R*)-2-Methyl-1-propionyl-1,2,3,4-tetrahydroquinolin-4-yl)amino)cyclohexyl)(2-((4-(((2S,4R)-2-methyl-1-propionyl-1,2,3,4-tetrahydroquinolin-4-yl)amino)phenyl)amino)-2-oxoethyl)carbamothioate] | 25.9 nM
8 | CCC(=O)N1c2ccccc2[C@H](Nc2ccc(-c3cnn(C4CCN(C(=O)C5CCC(N[C@@H]6C[C@H](C)N(C(=O)CC)c7ccccc76)CC5)CC4)c3)cc2)C[C@@H]1C (relative stereo) [Compound 8d, 1-((2S*,4R*)-2-Methyl-4-(((1r,4R)-4-(4-(4-(4-(((2S,4R)-2-methyl-1-propionyl-1,2,3,4-tetrahydroquinolin-4-yl)amino)phenyl)-1H-pyrazol-1-yl)piperidine-1-carbonyl)cyclohexyl)amino)-3,4-dihydroquinolin-1(2H)-yl)propan-1-one] | 0.14 nM
9 | CCC(=O)N1c2ccccc2[C@H](Nc2ccc(C(=O)c3cnc4n3CCN(C(=O)c3ccc(N[C@@H]5C[C@H](C)N(C(=O)CC)c6ccccc65)cc3)C4)cc2)C[C@@H]1C [Compound 6f, 1,1′-((2S,2'S,4R,4R)-(((5,6,7,8-Tetrahydroimidazo[1,2-a]pyrazine-3,7-dicarbonyl)bis(4,1-phenylene))bis(azanediyl))bis(2-methyl-3,4-dihydroquinoline-4,1(2H)-diyl))bis(propan-1-one)] | 0.11 nM
10 | CCC(=O)N1c2ccccc2[C@H](Nc2ccc(C(=O)NCC#CC(=O)NC3CCC(N[C@@H]4C[C@H](C)N(C(=O)CC)c5ccccc54)CC3)cc2)C[C@@H]1C (stereo partly drawn) [Compound 8m, 4-(((2S,4R)-2-Methyl-1-propionyl-1,2,3,4-tetrahydroquinolin-4-yl)amino)-N-(4-(((1R,4r)-4-(((2S,4R)-2-methyl-1-propionyl-1,2,3,4-tetrahydroquinolin-4-yl)amino)cyclohexyl)amino)-4-oxobut-2-yn-1-yl)benzamide] | 0.11 nM
11 | CCC(=O)N1c2ccccc2[C@H](Nc2ccc(C(=O)N3C[C@H]4C[C@@H]3CN4C(=O)[C@H]3CC[C@H](N[C@@H]4C[C@H](C)N(C(=O)CC)c5ccccc54)CC3)cc2)C[C@@H]1C [Compound 8p, 1-((2S,4R)-2-Methyl-4-(((1R,4R)-4-((1R,4R)-5-(4-(((2S,4R)-2-methyl-1-propionyl-1,2,3,4-tetrahydroquinolin-4-yl)amino)benzoyl)-2,5-diazabicyclo[2.2.1]heptane-2-carbonyl)cyclohexyl)amino)-3,4-dihydroquinolin-1(2H)-yl)propan-1-one] | 15 nM
12 | CCC(=O)N1c2ccccc2[C@H](Nc2ccc(NC(=O)C3CN(C(=O)N[C@H]4CC[C@H](N[C@@H]5C[C@H](C)N(C(=O)CC)c6ccccc65)CC4)C3)cc2)C[C@@H]1C [Compound 7c, N^1-((1R,4r)-4-(((2S,4R)-2-Methyl-1-propionyl-1,2,3,4-tetrahydroquinolin-4-yl)amino)cyclohexyl)-N^3-(4-(((2S,4R)-2-methyl-1-propionyl-1,2,3,4-tetrahydroquinolin-4-yl)amino)phenyl)azetidine-1,3-dicarboxamide] | 7 nM
13 | CCC(=O)N1c2ccccc2[C@H](NC2CCC(NC(=O)C#CCNC(=O)c3ccc(C4=NCc5nnc(C)n5-c5sc(C)c(C)c54)cc3)CC2)C[C@@H]1C (relative stereo) [Compound 14c, N-(4-(((1R,4r)-4-(((2S*,4R*)-2-Methyl-1-propionyl-1,2,3,4-tetrahydroquinolin-4-yl)amino)cyclohexyl)amino)-4-oxobut-2-yn-1-yl)-4-(2,3,9-trimethyl-6H-thieno[3,2-f][1,2,4]triazolo[4,3-a][1,4]diazepin-4-yl)benzamide] | 0.34 nM
14 | CCC(=O)N1c2ccccc2[C@H](Nc2ccc(NC(=O)CCCC(=O)NC3CCC(Cn4c(CC)cc5c4CCCC5=O)CC3)cc2)C[C@@H]1C (stereo partly drawn) [Compound 17b, N^1-((1r,4r)-4-((2-Ethyl-4-oxo-4,5,6,7-tetrahydro-1H-indol-1-yl)methyl)cyclohexyl)-N5-(4-(((2S,4R)-2-methyl-1-propionyl-1,2,3,4-tetrahydroquinolin-4-yl)amino)phenyl)glutaramide] | 1.74 nM
15 | CCC(=O)N1c2ccccc2[C@H](Nc2ccc(NC(=O)CNC(=O)O[C@H]3CC[C@H](N[C@@H]4C[C@H](C)N(C(=O)CC)c5ccccc54)CC3)cc2)C[C@@H]1C (relative stereo) [Compound 7e, (1R,4R)-4-(((2S*,4R*)-2-Methyl-1-propionyl-1,2,3,4-tetrahydroquinolin-4-yl)amino)cyclohexyl (2-((4-(((2S,4R)-2-methyl-1-propionyl-1,2,3,4-tetrahydroquinolin-4-yl)amino)phenyl)amino)-2-oxoethyl)carbamate] | 20.4 nM
16 | CCC(=O)N1c2ccccc2[C@H](Nc2ccc(C(=O)NCCCNC(=O)c3ccc(C(O)c4cc(O)cc(-c5c(C)noc5C)c4)cc3)cc2)C[C@@H]1C (relative stereo) [Compound 1d, 4-{[3-(3,5-Dimethylisoxazol-4-yl)-5-hydroxyphenyl](hydroxy)methyl}-N-[3-(4-{[(2S*,4R*)-2-methyl-1-propionyl-1,2,3,4-tetrahydroquinolin-4-yl]amino}benzamide)propyl]benzamide] | 38 nM
17 | CCC(=O)N1c2ccccc2[C@H](Nc2ccc(C(=O)NCCCNC(=O)c3ccc(C4=N[C@@H](CC(=O)N5CCN(CCO)CC5)c5nnc(C)n5-c5sc(C)c(C)c54)cc3)cc2)C[C@@H]1C [Compound 13f, 4-((S)-6-(2-(4-(2-Hydroxyethyl)piperazin-1-yl)-2-oxoethyl)-2,3,9-trimethyl-6H-thieno[3,2-f][1,2,4]triazolo[4,3-a][1,4]diazepin-4-yl)-N-(3-(4-(((2S,4R)-2-methyl-1-propionyl-1,2,3,4-tetrahydroquinolin-4-yl)amino)benzamide)propyl)benzamide] | 11.6 nM
